Measurements taken from patent US20250134874A1, “PHARMACEUTICAL FORMULATIONS COMPRISING 3-({[(4R)-7-{METHYL[4-(PROPAN-2-YL)PHENYL]AMINO}-3,4-DIHYDRO-2H-1-BENZOPYRAN-4-YL]METHYL}AMINO)PYRIDINE-4-CARBOXYLIC ACID” (TACHYON THERAPEUTICS, INC., priority 2021, published 2025).

Tested on: 301 cancer cell lines from different tumor types (OncoPanel; HD Biosciences)
Assay: 2D cell viability inhibition assay (CellTiter-Glo) in cancer cell line panel
Type: cell-based
Parameters: key to AUC: AUC as fraction of the no-inhibition area (dose range × 0–100 % of control)
Settings: for Emax: in %
Protocol: In a larger screening study, compound 1 was evaluated across a broad cancer cell line panel (OncoPanel; HD Biosciences) composed of 301 cancer cell lines from different tumor types.
2D cell viability inhibition assays were performed in multiwell plates seeded with cells from the panel. After seeding, the plates were cultured overnight in a humidified incubator at 37° C. to promote adherence. Assays were initiated in individual wells by adding either DMSO as a vehicle control, growth media as a blank, or serially diluted compound 1 (10 μM to 0.0005 μM with 1:3 serial dilution). Cultures were incubated for 168 hours after which the number of viable cells in each test well was assessed using the CellTiter-Glo® Luminescent Cell Viability Assay. Luminescence readouts were performed using an EnVision® Multilabel Reader and the compound 1 readouts were normalized to the DMSO control readouts, expressed as a percent of the control. Outliers were flagged out by visual inspection. Percent of control was plotted against the corresponding compound 1 concentration and the absolute IC50 value was determined using four-parameter logistic non-linear regression as the concentration where inhibition was 50% of the control. For maximum inhibition <50%, the absolute IC50 was reported as >10. In addition to EC50 and IC50, AUC was determined and was normalized to the area corresponding to theoretical no-inhibition (the rectangular area defined by the compound dose range and 0 to 100 in y). Emax was recorded as the minimum in y with the compound dose range. For those cell lines where Emax>40, EC50 was manually set to 10 μM. A hierarchical clustering algorithm based on Euclidean distance between the standardized input values and “Ward.D” method as implemented in R hclust function was used to visualize the compound 1 cellular potency data. The sensitive/moderate/resistant calls for each cell line was determined by visually inspecting the resulting clustering dendrogram. All the analyses were done in R Core Team.

CC(C)c1ccc(N(C)c2ccc3c(c2)OCC[C@H]3CNc2cnccc2C(=O)O)cc1 [Compound 1, 3-({[(4R)-7-{methyl[4-(propan-2-yl)phenyl]amino}-3,4-dihydro-2H-1-benzopyran-4-yl]methyl}amino)pyridine-4-carboxylic acid]
AUC (NCIH23 cell line): 0.6227
AUC (NCIH69 cell line): 0.2802
Emax (NCIH69 cell line): 1.271
AUC (NCIH82 cell line): 0.2502
AUC (NCIH209 cell line): 0.1869
Emax (NCIH209 cell line): 8.61
AUC (NCIH358 cell line): 0.4332
Emax (NCIH358 cell line): 22.66
AUC (NCIH441, lung, adenocarcinoma, 168 hours): 0.7804
AUC (NCIH446 cell line): 0.5837
AUC (NCIH460 cell line): 0.3714
Emax (NCIH460 cell line): 7.705
AUC (NCIH508 cell line): 0.3378
Emax (NCIH508 cell line): 3.207
AUC (NCIH520 cell line): 0.3237
AUC (NCIH522 cell line): 0.4447
Emax (NCIH522 cell line): 15.14
AUC (NCIH524 cell line): 0.3617
Emax (NCIH524 cell line): 12.7766
AUC (NCIH596, lung, mixed adenosquamous carcinoma, 168 hours): 0.8151
AUC (NCIH647 cell line): 0.4942
Emax (NCIH647 cell line): 28.29
AUC (NCIH661 cell line): 0.3608
Emax (NCIH661 cell line): 9.075
AUC (NCIH716 cell line): 0.3799
Emax (NCIH716 cell line): 12.75
AUC (NCIH929 cell line): 0.5285
AUC (NCIH1048 cell line): 0.1479
AUC (NCIH1092 cell line): 0.479
Emax (NCIH1092 cell line): 26.4
AUC (NCIH1155 cell line): 0.07571
AUC (NCIH1299 cell line): 0.3508
Emax (NCIH1299 cell line): 12.65
AUC (NCIH1355 cell line): 0.5594
AUC (NCIH1395, lung, adenocarcinoma, 168 hours): 0.8542
AUC (NCIH1435, lung, non-small cell carcinoma, 168 hours): 0.7612
AUC (NCIH1436 cell line): 0.4953
Emax (NCIH1436 cell line): 34.4
AUC (NCIH1437 cell line): 0.4082
Emax (NCIH1437 cell line): 14.97
AUC (NCIH1563, lung, adenocarcinoma, 168 hours): 0.9652
AUC (NCIH1573, lung, adenocarcinoma, 168 hours): 0.7482
AUC (NCIH1618 cell line): 0.02266
EC50 (NCIH1618 cell line): 0.508 nM
IC50 (NCIH1618 cell line): < 0.5 nM
AUC (NCIH1623 cell line): 0.522
AUC (NCIH1650, lung, bronchioloalveolar adenocarcinoma, 168 hours): 0.8746
AUC (NCIH1666 cell line): 0.2983
AUC (NCIH1694 cell line): 0.3214
Emax (NCIH1694 cell line): 21.59
AUC (NCIH1703 cell line): 0.4204
Emax (NCIH1703 cell line): 21.7324
AUC (NCIH1734 cell line): 0.6734
AUC (NCIH1755, lung, adenocarcinoma, 168 hours): 1.29
AUC (NCIH1793 cell line): 0.4916
Emax (NCIH1793 cell line): 27.48
AUC (NCIH1836 cell line): 0.3332
AUC (NCIH1838, lung, non-small cell carcinoma, 168 hours): 0.7858
AUC (NCIH1930 cell line): 0.5402
AUC (NCIH1944 cell line): 0.5809
Emax (NCIH1944 cell line): 37.59
AUC (NCIH1975 cell line): 0.529
AUC (NCIH2009, lung, adenocarcinoma, 168 hours): 0.7914
AUC (NCIH2023 cell line): 0.2884
AUC (NCIH2081 cell line): 0.3049
AUC (NCIH2087 cell line): 0.3822
AUC (NCIH2122 cell line): 0.5019
AUC (NCIH2171 cell line): 0.7416
AUC (NCIH2172 cell line): 0.6812
AUC (NCIH2228 cell line): 0.6864
AUC (NCIH2286 cell line): 0.2917
AUC (NCIH2291 cell line): 0.3822
Emax (NCIH2291 cell line): 13.48
AUC (NCIH2347 cell line): 0.5778
Emax (NCIH2347 cell line): 40.29
AUC (NCIN87 cell line): 0.3132
AUC (NIHOVCAR3, ovary, NS, 168 hours): 0.7771
AUC (NMCG1, central nervous system, NS, 168 hours): 0.7013
AUC (NOMO1 cell line): 0.3293
AUC (NUGC3 cell line): 0.3824
Emax (NUGC3 cell line): 16
AUC (NUGC4 cell line): 0.4642
Emax (NUGC4 cell line): 24.53
EC50 (OCUM1, OCUM1 cell line): ≥ 10000 nM
IC50 (OCUM1, OCUM1 cell line): 7.79 nM
AUC (OCUM1 cell line): 0.5324
Emax (OCUM1 cell line): 32.42
AUC (ONS76, central nervous system, NS, 168 hours): 0.7336
AUC (OSRC2 cell line): 0.6658
AUC (OVISE cell line): 0.5405
IC50 (OVISE cell line): 24 nM
AUC (P31FUJ cell line): 0.286
AUC (PANC1 cell line): 0.5543
AUC (PANC0213 cell line): 0.5829
EC50 (PANC0213 cell line): 21.5 nM
IC50 (PANC0213 cell line): 35.8 nM
AUC (PC3 cell line): 0.502
Emax (PC3 cell line): 26.1466
AUC (PECAPJ34CLONEC12 cell line): 0.311
EC50 (PECAPJ34CLONEC12 cell line): 3.81 nM
IC50 (PECAPJ34CLONEC12 cell line): 3.97 nM
AUC (PF382 cell line): 0.2761
AUC (PLCPRF5 cell line): 0.5107
AUC (RCM1 cell line): 0.6711
AUC (RD cell line): 0.4703
Emax (RD cell line): 27.42
AUC (REH cell line): 0.0957
AUC (RERFLCMS cell line): 0.6415
EC50 (RERFLCMS cell line): 23.5 nM
IC50 (RERFLCMS cell line): 65.9 nM
AUC (RKO cell line): 0.3827
Emax (RKO cell line): 11.05
AUC (RL cell line): 0.2366
